Paper PMC4366722 (Iranian Journal of Basic Medical Sciences, 2015)
“Also recorded” adds a separate entry of the source.

What was measured:
mushroom tyrosinase = assay: Diphenolase; type: biochemical; conditions: diphenolase activity
[1] = test system: Melanoma cell lines (NCBI Code: C136; human skin); assay: Cytotoxicity assay; type: cell-based; conditions: melanoma cells, 24 hr, MTT

Inhibition (reversibility) (mushroom tyrosinase) | Inhibition type (mushroom tyrosinase) | SMILES | effect on melanoma cell viability / cytotoxicity (in words) [1]
reversibly | noncompetitive | Nc1ccc(C(=O)O)cc1 [4-amino benzoic acid] | no significant change
reversibly | competitive | O=C(O)c1cccnc1 [Nicotinic acid, nicotinic acid] | declined remarkably; also recorded: cytotoxic effects
reversibly | competitive | O=C(O)c1ccccn1 [Picolinic acid, picolinic acid] | declined remarkably; also recorded: cytotoxic effects

SMILES | Inhibition (reversibility) (mushroom tyrosinase) | Inhibition type (mushroom tyrosinase) | effect on melanoma cell viability / cytotoxicity (in words) [1]
Nc1ccccc1C(=O)O [2-amino benzoic acid] | reversibly | noncompetitive | no significant change
